# Tested on: Plasmodium falciparum CQ-resistant strain W2
# Assay: In vitro antiplasmodial activity, SYBR Green I fluorescence-based method, strain W2
# Format: cell-based
# Conditions: CQ-resistant strain W2, 48 h incubation, mean of three independent experiments, read-out: P. falciparum Strains IC50 Values W2
# Outline: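 P. falciparum cultured in human erythrocytes in RPMI with 0.5% Albumax I, hypoxanthine and gentamicin at 37 °C in a candle jar. Compounds tested from 39 nM to 40 µM for 48 h. Parasite DNA quantified by SYBR Green I fluorescence in saponin/Triton lysis buffer (ex 485/em 535 nm).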
row,SMILES,IC50 [nM]
1,c1ccc(-c2cc(CNCCCN3CCCC3)nc3c2ccc2c(-c4ccccc4)cc(CNCCCN4CCCC4)nc23)cc1 [Compound 1l],30 ± 10
2,"CN(C)CCCCNCc1cc(-c2ccccc2)c2ccc3c(-c4ccccc4)cc(CNCCCCN(C)C)nc3c2n1 [Compound 1c, 2,9-Bis[(4-dimethylaminobutyl)aminomethyl]-4,7-diphenyl-1,10-phenanthroline]",30 ± 3
3,"CN(C)CCCCCNCc1cc(-c2ccccc2)c2ccc3c(-c4ccccc4)cc(CNCCCCCN(C)C)nc3c2n1 [Compound 1d, 2,9-Bis[(5-dimethylaminopentyl)aminomethyl]-4,7-diphenyl-1,10-phenanthroline]",3510 ± 520
4,c1ccc(-c2cc(CNCCc3ccccn3)nc3c2ccc2c(-c4ccccc4)cc(CNCCc4ccccn4)nc23)cc1 [Compound 1m],70 ± 10

# Source: publication PMC9699089 (Pathogens, 2022)
